Measurements from patent publication US10852302B2, “Method for evaluation of function of phagocyte” (MOCHIDA PHARMACEUTICAL CO., LTD., priority 2008, dated 2020).

Experiments:
Assay type in all cases: cell-based
[1] = test system: granulocyte from rabbit peritoneal cavity; assay: Action of phagocytosis inhibitors on sCD14-ST production by rabbit granulocyte stimulated with E. coli; details: inhibitor preincubated 37° C. 30 minutes, then 20 times by cell count of E. coli, 2 hours (FIG. 6)
Description: (§1) Two step sandwich ELISA system was constructed by using the F1301-9-1 antibody produced in Example 1-(4) for the solid phase antibody, and the F1258-7-2 Fab′-HRP antibody prepared in Example 3-(1) for the labeling antibody. More specifically, the F1301-9-1 antibody was diluted with D-PBS (pH 7.4) to 10 μg/mL, and added to the wells of immunoplate (Maxisorb, Nunc) at 50 μL/well. After allowing the reaction to proceed overnight at 4° C., the well was washed 5 times with ion exchanged water. D-PBS (pH 7.4) containing 5% StabilGuard (SurModics) and 0.1% Tween 20 was added to the wells at 200 μL/well for blocking. Next, the specimen was diluted by using 150 mM phosphate buffer (pH 6.0) containing 5% normal rabbit serum (serum from which soluble CD14 antigen has been removed by using the rabbit CD14 affinity antibody column), 1% BSA, and 0.1% Tween 20 for dilution, and the diluted specimen was added to the well at 50 μL/well and allowed to react at 25° C. for 3 hours. After completion of the reaction, the well was washed 5 times with physiological saline containing 0.05% Tween 20. The F1258-7-2 Fab′-HRP was diluted with 75 mM phosphate buffer (pH 6.4) containing 4% rat serum and 0.05% Tween 20, and added to the well at 50 μL/well. […] The reaction was ceased with 0.5M sulfuric acid solution, and absorbance at 450 nm was measured by using a plate spectrophotometer (NJ-2100, Intermed Japan). […]

[2] = test system: human peripheral blood granulocyte; assay: Action of phagocytosis inhibitors on sCD14-ST production by human granulocyte stimulated with E. coli; details: inhibitor preincubated 37° C. 1 hour, then 30 times by cell count of E. coli, 2 hours (FIG. 9)
Description: Granulocyte fraction was prepared from peripheral blood collected from a healthy human donor by density-gradient centrifugation using two layers each having a specific gravity of d=1.077 and d=1.119.
Various leukocyte stimulants were added to the granulocyte to evaluate the amount of sCD14-ST produced. More specifically, human peripheral blood granulocyte collected in Example 7-(1) was suspended in RPMI1640 culture containing 10% healthy human serum, 2 mM Glutamin, 10 mM HEPES, and 10 ng/ml G-CSF (SIGMA R8758) to a cell concentration of 0.5×10^7 cells/mL, and added to the wells of a 96 well culture plate (Nunclon Surface, Nunc) at 100 μL/well. The granulocyte was incubated overnight at 37° C. in the presence of 5% carbon dioxide. Next, various stimulants were adjusted to 1.5 fold concentration with HBSS buffer containing 10% healthy human serum, 2 mM Glutamin, and 10 mM HEPES, and added to the well at 200 μL/well. After incubating at 37° C. for 2 hours, the supernatant was collected by centrifugation, and human sCD14-ST was measured by using the assay kit described in Example 7-(3) of WO 2005/108429. More specifically, the sandwich assay kit used was the one containing the antibody which binds to the peptide consisting the amino acid sequence of 53rd to 68th amino acid residue of the human CD14 (S68 antibody), which specifically recognizes the human sCD14-ST. […]

[3] = test system: granulocyte from the rabbit peritoneal cavity; assay: sCD14-ST production by rabbit peritoneal granulocyte stimulated with leukocyte stimulants; details: rabbit granulocyte 1×10^7 cells/mL, stimulant, 37° C. for 2 hours, supernatant, sandwich ELISA (FIG. 4)
Description: as §1, with “hours.” for “hours. After completion of the reaction, the well was washed 5 times with physiological saline containing 0.05% Tween 20. The F1258-7-2 Fab′-HRP was diluted with 75 mM phosphate buffer (pH 6.4) containing 4% rat serum and 0.05% Tween 20, and added to the well at 50 μL/well.”
Various leukocyte stimulants were added to the granulocyte to evaluate the amount of sCD14-ST produced. […] After incubating at 37° C. for 2 hours, the supernatant was collected by centrifugation and sCD14-ST was measured by the assay system of Example 3-(2).

[4] = test system: granulocyte from the rabbit peritoneal cavity; assay: High molecular weight sCD14 production by rabbit granulocyte stimulated with leukocyte stimulants; details: stimulant, kit for high molecular weight sCD14 (R&D) (FIG. 5)

| Structure (SMILES) | Production of the rabbit sCD14-ST (effect of inhibitor) [1] | sCD14-ST production (effect of inhibitor) [2] | sCD14-ST production [3] | production of the high molecular weight sCD14 [4] |
| --- | --- | --- | --- | --- |
| C=C1[C@@H](C)[C@H]2[C@H](Cc3ccccc3)NC(=O)[C@]23[C@H](OC(C)=O)/C=C/[C@@](C)(O)C(=O)[C@@H](C)C/C=C/[C@H]3[C@@H]1O [Cytochalasin D] | inhibited | inhibited the sCD14-ST production | – | – |
| CCCCCCCCCCCCCC(=O)O[C@@H]1[C@@H](C)[C@@]2(O)[C@@H](C=C(CO)C[C@]3(O)C(=O)C(C)=C[C@@H]23)[C@@H]2C(C)(C)[C@]12OC(C)=O [PMA, phorbol myristate acetate] | – | – | increase in the sCD14-ST was not recognized | increase in the production of the high molecular weight sCD14 was recognized |
| COC[C@H]1OC(=O)c2coc3c2[C@@]1(C)C1=C(C3=O)[C@@H]2CCC(=O)[C@@]2(C)C[C@H]1OC(C)=O [Wortomanin] | inhibited | inhibited the sCD14-ST production | – | – |
| CSCC[C@H](NC=O)C(=O)N[C@@H](CC(C)C)C(=O)N[C@@H](Cc1ccccc1)C(=O)O [fMLP, formyl methionyl leucyl phenylalanine] | – | – | increase in the sCD14-ST was not recognized | – |
